# In patent US20050171206A1, “Therapeutical use” (priority 2004, published 2005):
# Where “and” joins values, the source holds several entries; their conditions need not be identical. Identical values can stand only once.
# Tests used:
# SMN2 genes = conditions: in vitro, cell cultures; cited from earlier work
# SMA patients = conditions: published clinical trials; cited from earlier work
# children with SMA II [1] = experiment: Joint contractures (Example 2); type: in vivo, human; conditions: between baseline and 9 weeks
# Experimental: (§1) Measurements lasted 3 to 5 seconds. The scores were grouped in a leg mega score and arm megascore by adding the best readings for each individual muscle within the subgroup and subdividing this score by the number of muscles examined. Intra-observer variation performed before the implementation of the study was less than 5%. Both myometry and measurement of joint contractures were performed by the same physiotherapist.
# [2] = cited from earlier work
# [3] = tested on: children with SMA II older than 5 years (muscle strength); experiment: Myometry, hand held electronic myometer (Example 2); type: in vivo, human; parameters: myometry: unit not given here; conditions: for myometry: individual children
# Experimental: (§2) The sodium salt of phenylbutyrate (triButyrate®) was administered orally in powder or tablets at 500 mg/kg/d (maximum dose 19 g/d), divided in 5 doses (every 4 hours except for an 8 hours night interval). An intermittent schedule (7 days on and 7 days off) was arbitrarily chosen, similarly to a previously reported schedule for treatment of sickle cell disease. (Atweh G F, Sutton M, Nassif I, Boosalis V, Dover G J, Wallen-stein S, Wright E, McMahon L, Stamatoyannopoulos G, Faller D V, Perrine S P Blood.1999;93:1790-97.) When this dosage was tolerated, patients were advised to continue for 9 weeks (5 weeks on and 4 weeks off).
# (§3) The assessment consisted of a detailed clinical physiotherapy evaluation including the Hammersmith functional motor scale and, in children older than 5 years, assessment of muscle strength and of forced vital capacity.
# as §1
# [4] = tested on: children with SMA II (motor function); experiment: Hammersmith functional motor scale, open trial in SMA II children (Example 2); type: in vivo, human; conditions: for Hammersmith functional scale score, mean: 10 children, baseline mean 13
# Description: Thirteen patients with SMA II, all with homozygous absence of SMN1, followed at the Bambino Gesu Hospital or at the UILDM centre in Rome were asked to participate in the present prospective open trial. In order to have a relatively homogeneous cohort of patients who could all be tested on the same scale only children with SMA II between 30 months and 12 years were included. Children younger than 30 months were excluded as the Hammersmith scale can only be reliably and consistently performed and scored after this age. (Main M, Kairon H, Mercuri E, Muntoni F. Eur J Paediatr Neurol. 2003;7:155-59.) Children older than 12 were excluded as after this age several complications, such as severe scoliosis and contractures are more frequent. Children who had been part of other pharmacological trials (e.g. salbutamol, creatine) in the year before the present trial started or who had had corrective surgery for scoliosis were also excluded.
# as §2, §3
# The scale consists of 20 items, each scored on a 3 point scoring system, (2 for unaided, 1 for assistance and 0 for inability). A total score can be achieved by summing the scores for all the individual items. The score can range from 0, if all the activities are failed, to 40, if all the activities are achieved.
# All items have to be tested without thoracic braces or leg orthoses. The scale can be completed in a maximum of 15 minutes. (Main M, Kairon H, Mercuri E, Muntoni F. Eur J Paediatr Neurol. 2003;7:155-59.)
# The scale was performed by 2 examiners (MP, SM) and each child was always assessed by the same examiner throughout the 3 assessments. Both observers had training sessions with a senior physiotherapist (MM) and the intra and inter-rater reliability was formally assessed in 5 children before starting the trial. In agreement with the previously reported data on intra and inter-observer reliability, these were >95%. (Main M, Kairon H, Mercuri E, Muntoni F. Eur J Paediatr Neurol. 2003;7:155-59.)
# The primary measure of efficacy in this trial was the change from baseline to 3 and 9 weeks in motor function as determined by the Hammersmith motor scale. Secondary measures included the change from baseline to 3 and 9 weeks in myometry scores and in FVC in the children older than 5 years. The primary outcome was analysed using repeated measures ANOVA. Statistical significance was determined at p<0.05. An estimate of SD of change in each of the measures considered is presented with 95% confidence intervals. The number of children older than 5 years who could be reliably assessed for myometry and FVC was too small to allow any meaningful statistical analysis for these measures.
# [5] = tested on: SMA patients (muscle strength); experiment: Myometry with hand-held dynamometer, day 0 and day 7 (Example 1); type: in vivo, human
# Experimental: (§4) Six SMA patients (P1-P6) and three parents (M2, M3, F6) were enrolled for a pilot trial. Four patients had SMA type II (P1-P4). P1 is a child who had lost the ability to sit unaided. P3 is […] and P4 and P5 are both […]. Two patients (P5 and P6) had SMA type III. The trial was approved by the Ethical Committee of the Catholic University. A written informed consent was obtained from all patients/parents. triButyrate®, the sodium salt of phenylbutyrate was administered at 500 mg/kg/d (maximum dose 19 g/d), divided in 6 doses(every 4 hours) for 7 days. Blood samples were taken from patients and parents on day 0 (T0, baseline) and on days 1-4 (T1-T4) and 7 (T7) of drug administration, and from 5 healthy untreated controls on 5 consecutive days (T0-T4). Total RNA was extracted by Trizol from leukocytes immediately after hypotonic lysis of samples.
# Muscle strength was assessed using a hand-held dynamometer (Citec, CIT Technics BV). (Merlini L, Mazzone E S, Solari A, Morandi L. Muscle Nerve 2002; 26:64-70) Patients were tested independently four times by two raters, and the highest measure of the maximal voluntary isometric contraction was selected. Inter-rater coefficients (ICC) were determined as described by Shrout et al. (Shrout P E, Fleiss J L. Pscychol Bull 1979; 86:420-428)
# (§5) F of Fisher, ANOVA and T of Student for independent variables tests were performed to assess statistical significance by using Winstat 4.01 and SPSS 10.0.1 for Windows software. P values <0.05 were accepted as significant.
# [6] = 200 g per person and day; cited from earlier work
# SMA patients and parents = experiment: Clinical observations and tolerability, pilot trial (Example 1); type: in vivo, human
# Experimental: as §4
# These subjective improvements prompted us to perform myometry in the other four patients on day 0 and 7 (table 1.2).
# children with SMA II [7] = experiment: Side effects (Example 2); type: in vivo, human
# Experimental: The sodium salt of phenylbutyrate (triButyrate®) was administered orally in powder or tablets at 500 mg/kg/d (maximum dose 19 g/d), divided in 5 doses (every 4 hours except for an 8 hours night interval). An intermittent schedule (7 days on and 7 days off) was arbitrarily chosen, similarly to a previously reported schedule for treatment of sickle cell disease.
# [8] = tested on: children with SMA II older than 5 years; experiment: Forced vital capacity by spirometer (Example 2); type: in vivo, human; parameters: FVC: unit not given here; conditions: for FVC: individual children
# Experimental: as §2, §3
# This was measured using a standard spirometer (Spyroanalyser ST-95, Fukuda Sangyo Co, LTD, Philippines) and using the best of three attempts.
# [9] = tested on: SMN full length (SMN-fl) transcripts (SMN2 gene expression) in leukocytes; experiment: SMN full length transcripts in leukocytes by real-time RT-PCR during one week of oral triButyrate (Example 1); type: in vivo, human
# Experimental: as §4
# SMN full length (SMN-fl) transcripts were measured by realtime RT-PCR using ABI-PRISM 7700 Sequence Detector System (Applied Biosystems) as described elsewhere. (Andreassi C, Angelozzi C, Tiziano F D, Vitali T, De Vincenzi E, Boninsegna A, Villanova M, Bertini E, Pini A, Neri G, Brahe C. Eur. J. Hum. Genet. 2004; 12:59-65) Transcripts were amplified at least twice in triplicate or quadruplicate. SMN transcript levels were calculated by comparing SMN versus glyceraldehyde-3-phosphate dehydrogenase transcripts, whose expression is not affected by triButyrate®. (Andreassi C, Angelozzi C, Tiziano F D, Vitali T, De Vincenzi E, Boninsegna A, Villanova M, Bertini E, Pini A, Neri G, Brahe C. Eur. J. Hum. Genet. 2004; 12:59-65) The relative amounts of SMN-fl transcripts in samples obtained from treated patients/parents and untreated controls were normalized versus those of T0.
# as §5
# [10] = i.v. administration, non-human primates; cited from earlier work
# [11] = according to recent publications
compound,measurement,setting,value
"O=C(O)CCCc1ccccc1 [PBA, 4-phenylbutyric acid]",SMN protein levels,SMN2 genes,effective in enhancing SMN protein levels
same,expression of the SMN2 genes,SMN2 genes,effective in increasing the expression of the SMN2 genes
same,number of SMN containing nuclear structures,SMN2 genes,effective in enhancing
CC(C)(C)NCC(O)c1ccc(O)c(CO)c1 (stereo not shown) [albuterol],clinical outcome in SMA patients,SMA patients,improvement in clinical symptoms
NCC1(CC(=O)O)CCCCC1 [gabapentin],clinical outcome in SMA patients,SMA patients,did not show improvement of the symptoms
Nc1nc2ccc(OC(F)(F)F)cc2s1 [riluzole],clinical outcome in SMA patients,SMA patients,no statistically significant improvement
CCCC(=O)[O-].[Na+] [sodium butyrate],expression of the SMN2 genes,SMN2 genes,can increase SMN2 gene expression in vitro
"O=C([O-])CCCc1ccccc1.[Na+] [triButyrate®, Sodium 4-phenylbutyrate]","major joint's ranges (hips, knees, hamstrings, tendon Achilles and elbows)",children with SMA II [1],no difference
same,expression of the SMN2 genes,SMN2 genes,can increase SMN2 gene expression in vitro
same,metabolised to butyrate,[2]; [11],~25%
same,metabolised to sodium phenylacetate,[2]; [11],approximately 75%
same,half-life,[2]; in vivo,48 to 60 min
same,"myometry, patients with increase",[3]; 4 patients older than 5 years,clear increase in 3 of the 4
same,myometry,"[3]; T1, 3 weeks",0.18 and 0.41 and 0.09 and 0.38
same,myometry,"[3]; T2, 9 weeks",0.17 and 0.45 and 0.09 and 0.46
same,motor function in the treated children,"[4]; 9 weeks, 7 days on and 7 days off",significant increase in motor function
same,children in the study group with an increase in functional scores,"[4]; 9 weeks, intermittent regimen",nine out of ten
same,"Hammersmith functional scale score, mean","[4]; T1, 3 weeks after treatment was started",14.8
same,"Hammersmith functional scale score, mean","[4]; T2, 9 weeks after treatment was started",17 and 16.6
same,children with an increase in functional scores of more than 2 points,"[4]; of the ten children, 9 weeks",6
same,Foot dorsiflexion,"[5]; T7 = day 7, P2, P3, P4 (type II), P6 (type III)",15 (0.6) Newtons and 9 (0.81) Newtons and 11 (0.81) Newtons and 11 (0.9) Newtons
same,Arm strength,"[5]; patients P3 and P4, less obvious than leg strength",increased
same,leg muscle strength on day 7 compared to baseline,"[5]; three type II patients (P2-4), statistically significant in P3 and P4",increase in leg muscle strength
same,muscle performance by myometry,"[5]; type III case (P6), reduced dosage",no changes in muscle performance
same,side-effect,[6],increased blood pressure
same,adverse events,"SMA patients and parents; P6 on day 2 at 18 g/d, resolved after reducing to 12 g/d",dizziness and tinnitus
same,tolerability,"SMA patients and parents; all subjects, 500 mg/kg/d for 7 days",tolerated the drug well except for P6
same,Full blood counts and liver function tests,"SMA patients and parents; all subjects, days 0 and 7",did not show significant changes
same,head and trunk control,"SMA patients and parents; patient P1, severe type II phenotype",slight improvement in head and trunk control
same,hand tremor,"SMA patients and parents; patient P5 (type III), day 3 of treatment, later complete absence lasting 4 days after end of trial",reduction of hand tremor
same,tolerability,"children with SMA II [7]; 500 mg/kg/d oral, intermittent, 9 weeks",generally well tolerated
same,stomach ache,"children with SMA II [7]; after the second dose, did not recur",Three very young children complained of stomach ache
same,children who found the taste of the drug very unpleasant,children with SMA II [7]; children who completed the trial,Eight of the 10
same,children who reported an unpleasant odour when sweating,children with SMA II [7]; of the eight who found the taste unpleasant,seven
same,adverse event leading to discontinuation,"children with SMA II [7]; one child, after the second week of treatment started",skin rash
same,"Forced vital capacity, patients with increase",[8]; 4 patients older than 5 years,clear increase in 3 of the 4
same,FVC,"[8]; T1, 3 weeks",0.87 and 1.15 and 0.75 and 1.70
same,FVC,"[8]; T2, 9 weeks",1.18 and 1.23 and 1.22 and 1.74
same,relative SMN-fl transcript levels during administration compared to baseline,"[9]; all patients, one or more blood samples",significant increase
same,"Percent SMN-fl transcripts variation versus T0, T1 mean(+-SD)","[9]; day 1 of 500 mg/kg/d oral, leukocytes, individual patients P1-P6 and parents M2, M3, F6, 500 mg/kg/day",+53 (0.1) % and −1 (0.0) % and +54 (0.2) % and +68 (0.0) % and +65 (0.1) % and +117 (1.0) % and +280 (0.7) % and +73 (0.0) % and +432 (0.2) %
same,"Percent SMN-fl transcripts variation versus T0, T2 mean(+-SD)","[9]; day 2 of 500 mg/kg/d oral, leukocytes, individual patients/parents, 500 mg/kg/day",+184 (0.6) % and +35 (0.3) % and +25 (0.1) % and +14 (0.0) % and −2 (0.0) % and +96 (0.1) % and +27 (0.0) % and +63 (0.1) %
same,"Percent SMN-fl transcripts variation versus T0, T3 mean(+-SD)","[9]; day 3 of 500 mg/kg/d oral, leukocytes, individual patients/parents, 500 mg/kg/day",+7 (0.2) % and +131 (0.5) % and +116 (0.0) % and −37 (0.0) % and +197 (0.7) % and −15 (0.1) % and +21 (0.1) % and +82 (0.2) %
same,"Percent SMN-fl transcripts variation versus T0, T4 mean(+-SD)","[9]; day 4 of 500 mg/kg/d oral, leukocytes, individual patients/parents, 500 mg/kg/day",+120 (0.4) % and −3 (0.0) % and +21 (0.0) % and +156 (0.2) % and +363 (0.6) % and +387 (0.9) % and −18 (0.2) % and +129 (0.3) % and +190 (0.5) %
same,"Percent SMN-fl transcripts variation versus T0, T7 mean(+-SD)","[9]; day 7 of 500 mg/kg/d oral, leukocytes, individual patients/parents, 500 mg/kg/day",+827 (1.9) % and +155 (0.1) % and −15 (0.4) % and +190 (0.2) % and +71 (0.3) % and +333 (0.5) % and +56 (0.2) %
same,increase in SMN-fl transcripts in at least one blood sample during treatment,[9]; in all patients,more than 100%
same,penetration into the cerebrospinal fluid (CSF),[10],penetrates into the cerebrospinal fluid
